Counter-ions that a name gives are not always drawn.
Experiments:
MCC13 cells (VN-MCC) = test: qHTS cell viability (CellTiter-Glo, 72 h; primary and follow-up small molecule screen); type: cell-based, human
MCC26 cells (VN-MCC) = test: as above; type: cell-based, human
UISO cells (VN-MCC) = test: as above; type: cell-based, human
WAGA cells (VP-MCC) = test: as above; type: cell-based, human
MKL-1 cells (VP-MCC) = test: as above; type: cell-based, human
MKL-2 cells (VP-MCC) = test: as above; type: cell-based, human
HACAT cells = test: qHTS cell viability (CellTiter-Glo, 72 h; primary screen), control cell line; type: cell-based, human
HEK293T cells = test: as above; type: cell-based, human
NIH-3T3 cells = test: as above; type: cell-based, mouse
CRL-7250 cells = test: as above; type: cell-based
[1] = test system: MCC cell lines (WAGA, MKL-1, MKL-2, MCC13, MCC26, UISO); test: qHTS cell viability, all six MCC cell lines as a group (mean AUC, MCC.avg); type: cell-based, human
[2] = test system: VP-MCC cell lines (WAGA, MKL-1, MKL-2); test: qHTS cell viability, VP-MCC cell lines as a group (mean AUC, VP.MCC.avg); type: cell-based, human; conditions: for VP-MCC_Avg_AUC: mean AUC of VP-MCC cell lines
[3] = test system: VN-MCC cell lines (MCC13, MCC26, UISO); test: qHTS cell viability, VN-MCC cell lines as a group (mean AUC, VN.MCC.avg); type: cell-based, human; conditions: for VN-MCC_Avg_AUC: mean AUC of VN-MCC cell lines
[4] = test system: control cell lines (HACAT, HEK293T, CRL-7250, NIH-3T3); test: qHTS cell viability, control cell lines as a group (mean AUC, Control.avg); type: cell-based; conditions: mean AUC of control cell lines
[5] = test system: six MCC cell lines and four control cell lines; test: qHTS cell viability, all 10 cell lines screened; type: cell-based
[6] = MIPE library, 11-point DRC, sheet S2E
[7] = MIPE library, 11-point DRC, control cell line, sheet S2E
[8] = NPC library, qHTS dose-response AUC, MCC13
[9] = NPC library; qHTS dose-response AUC, MCC26
[10] = NPC library, qHTS dose-response AUC, UISO
[11] = NPC library, qHTS dose-response AUC, WAGA
[12] = NPC library, qHTS dose-response AUC, MKL1
[13] = NPC library, qHTS dose-response AUC, MKL2
[14] = NPC library, qHTS dose-response AUC, HACAT control
[15] = NPC library; qHTS dose-response AUC, HEK293T control
[16] = NPC library, qHTS dose-response AUC, NIH3T3 control
[17] = NPC library, qHTS dose-response AUC, CRL7250 control
[18] = NPC library, mean AUC of six MCC cell lines
[19] = NPC library, therapeutic window: Control avg AUC minus VP-MCC avg AUC
[20] = NPC library, therapeutic window: Control avg AUC minus VN-MCC avg AUC
[21] = NPC library, therapeutic window: Control avg AUC minus MCC avg AUC
[22] = NPC library, 8-point DRC, area under dose-response curve
[23] = NPC library, 8-point DRC, control cell line

O=C(CCCCCCC(=O)Nc1ccccc1)NO [Suberoylanilide hydroxamic acid]
MCC13_AUC (MCC13 cells (VN-MCC); [6]): 429.995 | MCC26_AUC (MCC26 cells (VN-MCC); [6]): 457.523 | UISO_AUC (UISO cells (VN-MCC); [6]): 422.155 | WAGA_AUC (WAGA cells (VP-MCC); [6]): 347.247 | MKL1_AUC (MKL-1 cells (VP-MCC); [6]): 374.242 | MKL2_AUC (MKL-2 cells (VP-MCC); [6]): 344.522 | HACAT_AUC (HACAT cells; [7]): 451.394 | HEK293T_AUC (HEK293T cells; [7]): 400.579 | NIH3T3_AUC (NIH-3T3 cells; [7]): 416.277 | CRL7250_AUC (CRL-7250 cells; [7]): 429.882 | MCC_Avg_AUC ([1]; MIPE library, mean AUC of six MCC cell lines, sheet S2E): 395.947 | Control-VP-MCC ([2]; MIPE library, Control AUC minus VP-MCC AUC (therapeutic window), sheet S2E): 69.1958 | VP-MCC_Avg_AUC ([2]; MIPE library, sheet S2E): 355.337 | Control-VN-MCC ([3]; MIPE library, Control AUC minus VN-MCC AUC (therapeutic window), sheet S2E): -12.0249 | VN-MCC_Avg_AUC ([3]; MIPE library, sheet S2E): 436.558 | Control_Avg_AUC ([4]; MIPE library, sheet S2E): 424.533 | Control-MCC ([5]; MIPE library, Control AUC minus MCC AUC (therapeutic window), sheet S2E): 28.5854

[H]/N=C(/NCCCCC)N/N=C/c1c[nH]c2ccc(OC)cc12 [Tegaserod]
MCC13_AUC (MCC13 cells (VN-MCC); [8]): 473.827 | MCC26_AUC (MCC26 cells (VN-MCC); [9]): 428.067 | UISO_AUC (UISO cells (VN-MCC); [10]): 401.587 | WAGA_AUC (WAGA cells (VP-MCC); [11]): 279.713 | MKL1_AUC (MKL-1 cells (VP-MCC); [12]): 250.061 | MKL2_AUC (MKL-2 cells (VP-MCC); [13]): 260.213 | HACAT_AUC (HACAT cells; [14]): 397.896 | HEK293T_AUC (HEK293T cells; [15]): 405.853 | NIH3T3_AUC (NIH-3T3 cells; [16]): 444.55 | CRL7250_AUC (CRL-7250 cells; [17]): 432.653 | MCC_Avg_AUC [1, 18]: 348.911 | VP-MCC_Avg_AUC ([2]; NPC library): 263.329 | Control-VP-MCC [2, 19]: 156.909 | VN-MCC_Avg_AUC ([3]; NPC library): 434.493 | Control-VN-MCC [3, 20]: -14.2555 | Control_Avg_AUC ([4]; NPC library): 420.238 | Control-MCC [5, 21]: 71.3268

CSc1ccc2c(c1)N(CCC1CCCCN1C)c1ccccc1S2 (centres unmarked) [Thioridazine]
MCC13_AUC (MCC13 cells (VN-MCC); [22]): 405.187 | MCC13_AUC (MCC13 cells (VN-MCC); [8]): 405.187 | MCC13_AUC (MCC13 cells (VN-MCC); area under the dose-response curve, MCC13 cells, AUC<450 = reduced viability): 405.187 | MCC26_AUC (MCC26 cells (VN-MCC); [22]): 403.828 | MCC26_AUC (MCC26 cells (VN-MCC); NPC library, qHTS dose-response AUC, MCC26): 403.828 | MCC26_AUC (MCC26 cells (VN-MCC); area under the dose-response curve, MCC26 cells; AUC<450 = reduced viability): 403.828 | UISO_AUC (UISO cells (VN-MCC); [22]): 400.342 | UISO_AUC (UISO cells (VN-MCC); [10]): 400.342 | UISO_AUC (UISO cells (VN-MCC); area under the dose-response curve, UISO cells, AUC<450 = reduced viability): 400.342 | WAGA_AUC (WAGA cells (VP-MCC); [22]): 416.169 | WAGA_AUC (WAGA cells (VP-MCC); [11]): 416.169 | WAGA_AUC (WAGA cells (VP-MCC); area under the dose-response curve, WAGA cells, AUC<450 = reduced viability): 416.169 | MKL1_AUC (MKL-1 cells (VP-MCC); [22]): 412.834 | MKL1_AUC (MKL-1 cells (VP-MCC); [12]): 412.834 | MKL1_AUC (MKL-1 cells (VP-MCC); area under the dose-response curve, MKL-1 cells, AUC<450 = reduced viability): 412.834 | MKL2_AUC (MKL-2 cells (VP-MCC); [22]): 356.973 | MKL2_AUC (MKL-2 cells (VP-MCC); [13]): 356.974 | MKL2_AUC (MKL-2 cells (VP-MCC); area under the dose-response curve, MKL-2 cells, AUC<450 = reduced viability): 356.974 | HACAT_AUC (HACAT cells; [23]): 453.674 | HACAT_AUC (HACAT cells; [14]): 453.674 | HACAT_AUC (HACAT cells; area under the dose-response curve, HACAT control cells, AUC<450 = reduced viability): 453.674 | HEK293T_AUC (HEK293T cells; [23]): 452.051 | HEK293T_AUC (HEK293T cells; NPC library, qHTS dose-response AUC, HEK293T control): 452.051 | HEK293T_AUC (HEK293T cells; area under the dose-response curve, HEK293T control cells; AUC<450 = reduced viability): 452.051 | NIH3T3_AUC (NIH-3T3 cells; [23]): 457.937 | NIH3T3_AUC (NIH-3T3 cells; [16]): 457.938 | NIH3T3_AUC (NIH-3T3 cells; area under the dose-response curve, NIH3T3 control cells, AUC<450 = reduced viability): 457.938 | CRL7250_AUC (CRL-7250 cells; [23]): 474.374 | CRL7250_AUC (CRL-7250 cells; [17]): 474.374 | CRL7250_AUC (CRL-7250 cells; area under the dose-response curve, CRL7250 control cells, AUC<450 = reduced viability): 474.374 | MCC_Avg_AUC ([1]; NPC library, mean AUC of all 6 MCC cell lines): 399.222 | MCC_Avg_AUC [1, 18]: 399.222 | Control-VP-MCC ([2]; Control AUC minus VP-MCC AUC): 64.1836 | Control-VP-MCC ([2]; NPC library, Control AUC minus VP-MCC AUC (therapeutic window)): 64.1836 | Control-VN-MCC ([3]; Control AUC minus VN-MCC AUC): 56.3901 | Control-VN-MCC ([3]; NPC library, Control AUC minus VN-MCC AUC (therapeutic window)): 56.3901 | VN-MCC_Avg_AUC ([3]; NPC library): 403.119 | Control_Avg_AUC ([4]; NPC library): 459.509 | Control-MCC ([5]; NPC library, Control AUC minus MCC AUC (therapeutic window)): 60.2868

Cc1ccsc1C(=CCCN1CCC[C@@H](C(=O)O)C1)c1sccc1C [Tiagabine hydrochloride]
MCC13_AUC (MCC13 cells (VN-MCC); [8]): 504.961 | MCC26_AUC (MCC26 cells (VN-MCC); [9]): 535.626 | UISO_AUC (UISO cells (VN-MCC); [10]): 537.732 | WAGA_AUC (WAGA cells (VP-MCC); [11]): 356.213 | MKL1_AUC (MKL-1 cells (VP-MCC); [12]): 342.483 | MKL2_AUC (MKL-2 cells (VP-MCC); [13]): 263.998 | HACAT_AUC (HACAT cells; [14]): 471.067 | HEK293T_AUC (HEK293T cells; [15]): 447.539 | NIH3T3_AUC (NIH-3T3 cells; [16]): 484.889 | CRL7250_AUC (CRL-7250 cells; [17]): 426.76 | MCC_Avg_AUC [1, 18]: 423.502 | VP-MCC_Avg_AUC ([2]; NPC library): 320.898 | Control-VP-MCC [2, 19]: 136.666 | VN-MCC_Avg_AUC ([3]; NPC library): 526.106 | Control-VN-MCC [3, 20]: -68.5423 | Control_Avg_AUC ([4]; NPC library): 457.564 | Control-MCC [5, 21]: 34.0617

Clc1ccc(C(Cn2ccnc2)OCc2ccsc2Cl)c(Cl)c1 (centres unmarked) [Tioconazole]
MCC13_AUC (MCC13 cells (VN-MCC); [8]): 438.775 | MCC26_AUC (MCC26 cells (VN-MCC); [9]): 501.8 | UISO_AUC (UISO cells (VN-MCC); [10]): 437.585 | WAGA_AUC (WAGA cells (VP-MCC); [11]): 248.268 | MKL1_AUC (MKL-1 cells (VP-MCC); [12]): 310.311 | MKL2_AUC (MKL-2 cells (VP-MCC); [13]): 282.208 | HACAT_AUC (HACAT cells; [14]): 488.14 | HEK293T_AUC (HEK293T cells; [15]): 456.797 | NIH3T3_AUC (NIH-3T3 cells; [16]): 445.245 | CRL7250_AUC (CRL-7250 cells; [17]): 480.608 | MCC_Avg_AUC [1, 18]: 369.824 | VP-MCC_Avg_AUC ([2]; NPC library): 280.262 | Control-VP-MCC [2, 19]: 187.435 | VN-MCC_Avg_AUC ([3]; NPC library): 459.387 | Control-VN-MCC [3, 20]: 8.311 | Control_Avg_AUC ([4]; NPC library): 467.697 | Control-MCC [5, 21]: 97.8731

— PMC11822212, “High-throughput screening identifies Aurora kinase B as a critical therapeutic target for Merkel cell carcinoma” (Nature Communications, 2025)
